Key:
[1] = tested on: single-stranded DNA (5′-d(agcaaaaaacgc)-3′; SEQ ID NO: 6) (a sense strand); assay: Measurement of melting temperatures (Tm) of oligonucleotides, double strand forming capability with single-stranded DNA; assay type: binding; settings: antisense 5′-d(gcgnnnnnngct)-3′ (SEQ ID NO: 4); 100 mM NaCl, 10 mM sodium phosphate buffer pH 7.2, 4 μM each strand
[2] = tested on: single-stranded RNA (5′-r(agcaaaaaacgc)-3′; SEQ ID NO: 7) (a sense strand); assay: Measurement of melting temperatures (Tm) of oligonucleotides, double strand forming capability with single-stranded RNA; assay type: binding; settings: antisense 5′-d(gcgnnnnnngct)-3′ (SEQ ID NO: 4); 100 mM NaCl, 10 mM sodium phosphate buffer pH 7.2, 4 μM each strand

Substance	Tm value (target: ssDNA) [1] [°C]	Tm value (target: ssRNA) [2] [°C]
DNA-T: 5′-d(gcgnnnnnngct)-3′ (SEQ ID NO: 4), n = formula (7) unit, Base thymin-1-yl, R^a H (natural DNA T) (DNA AGCAAAAAACGC; n natural T, chemistry not fully specified; the letters are possibly those of the target site)	52	48
(R)EDM-T: SEQ ID NO: 4, n = formula (6) unit: thymin-1-yl, n 1, R^3 3-(N,N-dimethylamino)propyl, R^4 (R)-ethyl, R^5 H (DNA AGCAAAAAACG; n (R)EDM-T modified units, chemistry not fully specified; the letters are possibly those of the target site)	77	89

— patent US20230257413A1, “ARTIFICIAL NUCLEIC ACID, METHOD FOR PRODUCING SAME, AND USE THEREOF” (RIKEN GENESIS CO., LTD., priority 2020, published 2023)
